Results as given in patent US7456167B2, “Cyclopropyl fused indolobenzazepine HCV NS5B inhibitors” (Bristol-Myers Squibb Company, priority 2006, dated 2008).

Key:
[1] = target: T1, HCV NS5B RdRp genotype 1b (Hepatitis C virus genotype 1b, UniProt Q9WMX2); assay: Modified HCV NS5B RdRp enzyme assay (preincubation protocol); assay type: biochemical; conditions: HCV NS5B RdRp genotype 1b; preincubation protocol; read-out: IC50
T1 construct: The protein was expressed with an 18 amino acid C-terminal truncation to enhance the solubility; made in house; host or cells: E. coli BL21(DE3)
Method: HCV NS5B RdRp cloning, expression, and purification. The cDNA encoding the NS5B protein of HCV, genotype 1b, was cloned into the pET21a expression vector. The protein was expressed with an 18 amino acid C-terminal truncation to enhance the solubility. The E. coli competent cell line BL21(DE3) was used for expression of the protein. Cultures were grown at 37° C. for ˜4 hours until the cultures reached an optical density of 2.0 at 600 nm. The cultures were cooled to 20° C. and induced with 1 mM IPTG. Fresh ampicillin was added to a final concentration of 50 μg/ml and the cells were grown overnight at 20° C.
Cell pellets (3 L) were lysed for purification to yield 15-24 mgs of purified NS5B. The lysis buffer consisted of 20 mM Tris-HCl, pH 7.4, 500 mM NaCl, 0.5% triton X-100, 1 mM DTT, 1 mM EDTA, 20% glycerol, 0.5 mg/ml lysozyme, 10 mM MgCl2, 15 ug/ml deoxyribonuclease I, and Complete TM protease inhibitor tablets (Roche). After addition of the lysis buffer, frozen cell pellets were resuspended using a tissue homogenizer. To reduce the viscosity of the sample, aliquots of the lysate were sonicated on ice using a microtip attached to a Branson sonicator. The sonicated lysate was centrifuged at 100,000×g for 1 hr at 4° C. and filtered through a 0.2 μm filter unit (Corning).
The protein was purified using three sequential chromatography steps: Heparin sepharose CL-6B, polyU sepharose 4B, and Hitrap SP sepharose (Pharmacia). The chromatography buffers were identical to the lysis buffer but contained no lysozyme, deoxyribonuclease I, MgCl2 or protease inhibitor and the NaCl concentration of the buffer was adjusted according to the requirements for charging the protein onto the column. Each column was eluted with a NaCl gradient which varied in length from 5-50 column volumes depending on the column type. After the final chromatography step, the resulting purity of the enzyme is >90% based on SDS-PAGE analysis. The enzyme was aliquoted and stored at −80° C.
Standard HCV NS5B RdRp enzyme assay. HCV RdRp genotype 1b assays were run in a final volume of 60 μl in 96 well plates (Costar 3912). The assay buffer is composed of 20 mM Hepes, pH 7.5, 2.5 mM KCl, 2.5 mM MgCl2, 1 mM DTT, 1.6 U RNAse inhibitor (Promega N2515), 0.1 mg/ml BSA (Promega R3961), and 2% glycerol. All compounds were serially diluted (3-fold) in DMSO and diluted further in water such that the final concentration of DMSO in the assay was 2%. HCV RdRp genotype 1b enzyme was used at a final concentration of 28 nM. A polyA template was used at 6 nM, and a biotinylated oligo-dT12 primer was used at 180 nM final concentration. Template was obtained commercially (Amersham 27-4110). Biotinylated primer was prepared by Sigma Genosys. 3H-UTP was used at 0.6 μCi (0.29 μM total UTP). Reactions were initiated by the addition of enzyme, incubated at 30° C. for 60 min, and stopped by adding 25 μl of 50 mM EDTA containing SPA beads (4 μg/μl, Amersham RPNQ 0007). Plates were read on a Packard Top Count NXT after >1 hr incubation at room temperature.
Modified HCV NS5B RdRp enzyme assay. A modified enzyme assay was performed essentially as described for the standard enzyme assay except for the following: The biotinylated oligo dT12 primer was precaptured on streptavidin-coated SPA beads by mixing primer and beads in assay buffer and incubating at room temperature for one hour. Unbound primer was removed after centrifugation. The primer-bound beads were resuspended in 20 mM Hepes buffer, pH 7.5 and used in the assay at final concentrations of 20 nM primer and 0.67 μg/μl beads. Order of addition in the assay: enzyme (14 nM) was added to diluted compound followed by the addition of a mixture of template (0.2 nM), 3H-UTP (0.6 μCi, 0.29 μM), and primer-bound beads, to initiate the reaction; concentrations given are final. Reactions were allowed to proceed for 4 hours at 30° C.
IC50 values for compounds were determined using seven different [I]. […]

HCV replicon cells = assay: HCV replicon FRET assay; assay type: cell-based; conditions: Hepatitis C virus; HCV replicon cells; FRET assay; read-out: EC50
Description: FRET Assay Preparation. To perform the HCV FRET screening assay, 96-well cell culture plates were used. The FRET peptide (Anaspec, Inc.) (Taliani et al., Anal. Biochem. 1996, 240, 60-67) contains a fluorescence donor, EDANS, near one end of the peptide and an acceptor, DABCYL, near the other end. The fluorescence of the peptide is quenched by […] resonance energy transfer (RET) between the donor and the acceptor, but as the NS3 protease cleaves the peptide the products are released from RET quenching and the fluorescence of the donor becomes apparent. The assay reagent was made as follows: 5× cell Luciferase cell culture lysis reagent from Promega (#E153A) diluted to 1× with dH2O, NaCl added to 150 mM final, the FRET peptide diluted to 20 uM final from a 2 mM stock.
To prepare plates, HCV replicon cells, with or without a Renilla luciferase reporter gene, were trypsinized and placed into each well of a 96-well plate with titrated test compounds added in columns 3 through 12; columns 1 and 2 contained a control compound (HCV protease inhibitor), and the bottom row contained cells without compound. The plates were then placed in a CO2 incubator at 37° C.
Assays. Subsequent to addition of the test compounds described above (FRET Assay Preparation), at various times the plate was removed and Alamar blue solution (Trek Diagnostics, #00-100) was added per well as a measure of cellular toxicity. After reading in a Cytoflour 4000 instrument (PE Biosystems), plates were rinsed with PBS and then used for FRET assay by the addition of 30 ul of the FRET peptide assay reagent described above (FRET Assay Preparation) per well. The plate was then placed into the Cytoflour 4000 instrument which had been set to 340 excite/490 emission, automatic mode for 20 cycles and the plate read in a kinetic mode. Typically, the signal to noise using an endpoint analysis after the reads was at least three-fold. Alternatively, after Alamar blue reading, plates were rinsed with PBS, 50 ul of DMEM (high glucose) without phenol red was added and plates were then used for luciferase assay using the Promega Dual-Glo Luciferase Assay System.
Compound analysis was determined by quantification of the relative HCV replicon inhibition and the relative cytotoxicity values. To calculate cytoxicity values, the average Alamar Blue fluorescence signals from the control wells were set as 100% non-toxic. The individual signals in each of the compound test wells were then divided by the average control signal and multiplied by 100% to determine […]. To calculate the HCV replicon inhibition values, an average background value was obtained from the two wells containing the highest amount of HCV protease inhibitor at the end of the assay period. These numbers were similar to those obtained from naïve Huh-7 cells.
The background numbers were then subtracted from the average signal obtained from the control wells and this number was used as 100% activity. The individual signals in each of the compound test wells were then divided by the averaged control values after background subtraction and multiplied by 100% to determine percent activity. EC50 values for a protease inhibitor titration were calculated as the concentration which caused a 50% reduction in FRET or luciferase activity. The two numbers generated for the compound plate, percent cytoxicity and percent activity were used to determine compounds of interest for further analysis.

T1 sequence (Q9WMX2 2420-2992): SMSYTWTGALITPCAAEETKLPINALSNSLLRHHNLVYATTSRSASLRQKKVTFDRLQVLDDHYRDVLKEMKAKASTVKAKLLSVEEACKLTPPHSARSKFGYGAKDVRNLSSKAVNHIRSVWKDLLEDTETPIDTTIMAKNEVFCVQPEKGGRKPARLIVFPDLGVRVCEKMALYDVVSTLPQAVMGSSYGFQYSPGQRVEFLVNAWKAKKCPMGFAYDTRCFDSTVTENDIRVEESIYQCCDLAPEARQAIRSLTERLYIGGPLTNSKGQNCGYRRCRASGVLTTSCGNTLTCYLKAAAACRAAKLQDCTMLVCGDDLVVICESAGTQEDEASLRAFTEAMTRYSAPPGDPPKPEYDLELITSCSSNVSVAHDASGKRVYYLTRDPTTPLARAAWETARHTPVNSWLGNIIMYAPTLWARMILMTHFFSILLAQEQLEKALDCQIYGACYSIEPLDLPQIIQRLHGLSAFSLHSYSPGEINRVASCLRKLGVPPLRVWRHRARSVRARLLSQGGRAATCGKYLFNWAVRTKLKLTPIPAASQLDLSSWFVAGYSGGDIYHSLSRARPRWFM

SMILES	IC50 [1]	EC50 (HCV replicon cells)
CCS(=O)(=O)C12CC1c1ccccc1-c1c(C3CCCCC3)c3ccc(C(=O)NS(=O)(=O)N(C)C)cc3n1C2 (stereo not drawn)	20 to 1000 nM	20 to 1000 nM
CCS(=O)(=O)C1Cc2ccccc2-c2c(C3CCCCC3)c3ccc(C(=O)O)cc3n2C1 (stereo not drawn)	20 to 1000 nM	20 to 1000 nM
COc1ccc2c(c1)C=C(S(=O)(=O)N1CCOCC1)Cn1c-2c(C2CCCCC2)c2ccc(C(=O)NS(=O)(=O)N(C)C)cc21	20 to 1000 nM	20 to 1000 nM
COc1ccc2c(c1)C1CC1(S(=O)(=O)N1CCOCC1)Cn1c-2c(C2CCCCC2)c2ccc(C(=O)NS(=O)(=O)N(C)C)cc21 (stereo not drawn)	20 to 1000 nM	20 to 1000 nM
COc1ccc2c(c1)CC(S(=O)(=O)N1CCOCC1)Cn1c-2c(C2CCCCC2)c2ccc(C(=O)O)cc21 (stereo not drawn)	20 to 1000 nM	20 to 1000 nM
COc1ccc2c(c1)CC(S(=O)(=O)N1CCOCC1)Cn1c-2c(C2CCCCC2)c2ccc(C(=O)NS(=O)(=O)N(C)C)cc21 (stereo not drawn)	20 to 1000 nM	20 to 1000 nM
CN(C)S(=O)(=O)NC(=O)c1ccc2c(C3CCCCC3)c3n(c2c1)CC(S(=O)(=O)N1CCOCC1)=Cc1ccccc1-3	20 to 1000 nM	20 to 1000 nM
COc1ccc2c(c1)C=C(S(=O)(=O)N1CCN(C)CC1)Cn1c-2c(C2CCCCC2)c2ccc(C(=O)NS(=O)(=O)N(C)C)cc21	20 to 1000 nM	20 to 1000 nM
COc1ccc2c(c1)C1CC1(S(=O)(=O)N1CCN(C)CC1)Cn1c-2c(C2CCCCC2)c2ccc(C(=O)NS(=O)(=O)N(C)C)cc21 (stereo not drawn)	20 to 1000 nM	20 to 1000 nM
COC(=O)c1ccc2c(C3CCCCC3)c3n(c2c1)CC1(S(=O)(=O)O)CC1c1cc(OC)ccc1-3 (stereo not drawn)	70 to 1000 nM	> 1000 nM
COc1ccc2c(c1)C1CC1(S(=O)(=O)N1CC3C[C@H]1CN3C)Cn1c-2c(C2CCCCC2)c2ccc(C(=O)O)cc21 (stereo partly drawn)	20 to 1000 nM	20 to 1000 nM
COc1ccc2c(c1)C1CC1(S(=O)(=O)N1C[C@@H](C)N(C)[C@@H](C)C1)Cn1c-2c(C2CCCCC2)c2ccc(C(=O)O)cc21 (stereo partly drawn)	20 to 1000 nM	20 to 1000 nM
COc1ccc2c(c1)C1CC1(S(=O)(=O)N1C[C@@H](C)O[C@@H](C)C1)Cn1c-2c(C2CCCCC2)c2ccc(C(=O)O)cc21 (stereo partly drawn)	20 to 1000 nM	20 to 1000 nM
COc1ccc2c(c1)C1CC1(S(=O)(=O)N1CCN(S(C)(=O)=O)CC1)Cn1c-2c(C2CCCCC2)c2ccc(C(=O)O)cc21 (stereo not drawn)	20 to 1000 nM	1000 to 10000 nM
COc1ccc2c(c1)C1CC1(S(=O)(=O)N1CCCN(C)CC1)Cn1c-2c(C2CCCCC2)c2ccc(C(=O)O)cc21 (stereo not drawn)	20 to 1000 nM	20 to 1000 nM
COc1ccc2c(c1)C1CC1(S(=O)(=O)N(C)C)Cn1c-2c(C2CCCCC2)c2ccc(C(=O)O)cc21 (stereo not drawn)	1000 to 10000 nM	20 to 1000 nM
COc1ccc2c(c1)C1CC1(S(=O)(=O)N(C)CCN(C)C)Cn1c-2c(C2CCCCC2)c2ccc(C(=O)O)cc21 (stereo not drawn)	20 to 1000 nM	20 to 1000 nM
COc1ccc2c(c1)C1CC1(S(=O)(=O)N(C)CC(=O)N1CCOCC1)Cn1c-2c(C2CCCCC2)c2ccc(C(=O)O)cc21 (stereo not drawn)	20 to 1000 nM	20 to 1000 nM
COc1ccc2c(c1)C1CC1(S(=O)(=O)N1CCC(O)CC1)Cn1c-2c(C2CCCCC2)c2ccc(C(=O)O)cc21 (stereo not drawn)	20 to 1000 nM	20 to 1000 nM
COc1ccc2c(c1)C1CC1(S(=O)(=O)N1CC(O)C1)Cn1c-2c(C2CCCCC2)c2ccc(C(=O)O)cc21 (stereo not drawn)	20 to 1000 nM	20 to 1000 nM
COc1ccc2c(c1)C1CC1(S(=O)(=O)N1CC(C)(O)C1)Cn1c-2c(C2CCCCC2)c2ccc(C(=O)O)cc21 (stereo not drawn)	20 to 1000 nM	20 to 1000 nM
COc1ccc2c(c1)C1CC1(S(=O)(=O)N1CC3C[C@H]1CN3C)Cn1c-2c(C2CCCCC2)c2ccc(C(=O)NS(=O)(=O)N(C)C)cc21 (stereo partly drawn)	20 to 1000 nM	20 to 1000 nM
COc1ccc2c(c1)C1CC1(S(=O)(=O)N1C[C@@H](C)N(C)[C@@H](C)C1)Cn1c-2c(C2CCCCC2)c2ccc(C(=O)NS(=O)(=O)N(C)C)cc21 (stereo partly drawn)	20 to 1000 nM	20 to 1000 nM
COc1ccc2c(c1)C1CC1(S(=O)(=O)N1C[C@@H](C)O[C@@H](C)C1)Cn1c-2c(C2CCCCC2)c2ccc(C(=O)NS(=O)(=O)N(C)C)cc21 (stereo partly drawn)	20 to 1000 nM	20 to 1000 nM
COc1ccc2c(c1)C1CC1(S(=O)(=O)N1CCN(S(C)(=O)=O)CC1)Cn1c-2c(C2CCCCC2)c2ccc(C(=O)NS(=O)(=O)N(C)C)cc21 (stereo not drawn)	20 to 1000 nM	20 to 1000 nM
COc1ccc2c(c1)C1CC1(S(=O)(=O)N1CCCN(C)CC1)Cn1c-2c(C2CCCCC2)c2ccc(C(=O)NS(=O)(=O)N(C)C)cc21 (stereo not drawn)	20 to 1000 nM	20 to 1000 nM
COc1ccc2c(c1)C1CC1(S(=O)(=O)N(C)C)Cn1c-2c(C2CCCCC2)c2ccc(C(=O)NS(=O)(=O)N(C)C)cc21 (stereo not drawn)	20 to 1000 nM	20 to 1000 nM
COc1ccc2c(c1)C1CC1(S(=O)(=O)N(C)CCN(C)C)Cn1c-2c(C2CCCCC2)c2ccc(C(=O)NS(=O)(=O)N(C)C)cc21 (stereo not drawn)	20 to 1000 nM	20 to 1000 nM
COc1ccc2c(c1)C1CC1(S(=O)(=O)N(C)CC(=O)N1CCOCC1)Cn1c-2c(C2CCCCC2)c2ccc(C(=O)NS(=O)(=O)N(C)C)cc21 (stereo not drawn)	20 to 1000 nM	20 to 1000 nM
COc1ccc2c(c1)C1CC1(S(=O)(=O)N1C[C@@H](C)N(C)[C@@H](C)C1)Cn1c-2c(C2CCCCC2)c2ccc(C(=O)NS(=O)(=O)C(C)C)cc21 (stereo partly drawn)	20 to 1000 nM	20 to 1000 nM
